# Measurements reported in patent US20210246128A1, “BICYCLE TOPOISOMERASE I INHIBITING COMPOUNDS, PROCESS FOR PREPARATION AND USE THEREOF” (Council of Scientific & Industrial Research, priority 2018, published 2021).
# Tests used:
# [1] = molecular target: T1, endogenous TopI from the whole cell extracts of human breast adenocarcinoma (MCF7) cell (Homo sapiens, UniProt P11387); assay: Plasmid DNA relaxation assay with MCF7 cell lysates (ex vivo); assay type: biochemical; details: MCF7 cell lysates as source of TopI
# T1 construct: TopI enzyme in the extract is conserved in its native structure among a plethora of other cellular proteins; endogenous in cells; host or cells: MCF7 whole cell extract
# T1 sequence (P11387 1-765): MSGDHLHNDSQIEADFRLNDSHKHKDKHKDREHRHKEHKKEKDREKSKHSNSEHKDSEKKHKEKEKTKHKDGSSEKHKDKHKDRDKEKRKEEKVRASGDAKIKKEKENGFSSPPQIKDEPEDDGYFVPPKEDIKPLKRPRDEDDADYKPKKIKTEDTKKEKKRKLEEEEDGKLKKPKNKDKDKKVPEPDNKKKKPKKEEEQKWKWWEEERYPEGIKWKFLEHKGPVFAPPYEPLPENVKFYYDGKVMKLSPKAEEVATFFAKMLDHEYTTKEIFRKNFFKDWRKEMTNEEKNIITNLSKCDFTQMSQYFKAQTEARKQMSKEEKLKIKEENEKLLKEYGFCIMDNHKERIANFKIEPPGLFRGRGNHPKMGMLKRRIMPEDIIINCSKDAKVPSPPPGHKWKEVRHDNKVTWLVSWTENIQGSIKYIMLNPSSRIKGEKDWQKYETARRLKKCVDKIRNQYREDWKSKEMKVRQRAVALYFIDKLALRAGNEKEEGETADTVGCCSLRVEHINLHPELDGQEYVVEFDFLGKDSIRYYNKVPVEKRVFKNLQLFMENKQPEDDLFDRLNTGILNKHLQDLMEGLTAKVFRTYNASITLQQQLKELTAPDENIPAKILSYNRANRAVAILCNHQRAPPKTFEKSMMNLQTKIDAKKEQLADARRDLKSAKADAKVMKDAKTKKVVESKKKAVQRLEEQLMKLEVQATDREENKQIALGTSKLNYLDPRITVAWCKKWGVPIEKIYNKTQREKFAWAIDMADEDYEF
# Procedure: Human ToPI Inhibition in Plasmid DNA Relaxation Assays with Recombinant TopI (In Vitro) or MCF7 Cell Lysates (Ex Vivo)
# Relaxation of supercoiled pBSSK(^+) DNA with recombinant human TopI (HTopI) at a molar ratio of 3:1 at 37° C. for 30 minutes was performed
# cellular extracts were utilized as a source of TopI (ex vivo) in plasmid DNA relaxation assays. TopI enzyme in the extract is conserved in its native structure among a plethora of other cellular proteins.
# [2] = Solubility assay (pH 7.4 pION buffer, UV); assay type: physicochemical; details: pH 7.4 pION buffer, aqueous buffer, kinetic from dmso stock; pH 7.4 buffer, 18 hours incubation; read-out: Avg. Solubility (μg/mL) at pH 7.4
# Outline: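 Compound from 20 mM DMSO stock diluted to 200 μM in pH 7.4 pION buffer (<1.0% DMSO) and incubated 18 h sealed. Samples vacuum-filtered, filtrate mixed 1:1 with acetonitrile and UV absorbance read at 240 nm against an acetonitrile/buffer reference of the stock.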
smiles,measurement,setting,value
"Nc1ccc(-c2ccc3ncc(-c4nnco4)c(NCCCn4ccnc4)c3c2)cn1 [Compound 24, N-(3-(1H-imidazol-1-yl)propyl)-6-(6-aminopyridin-3-yl)-3-(1,3,4-oxadiazol-2-yl)quinolin-4-amine]",IC50,[1],1830 nM
same,solubility at 18 h,[2],27.2 µg/mL
